Measurements reported in US20250144131A1, “POLYSACCHARIDE COMPOUND WITH A DEFINED MOLECULAR STRUCTURE FOR THE TREATMENT OF PULMONARY FIBROSIS” (SHENZHEN YANDAI INVESTMENT CO., LTD, priority 2023, published 2025).

What was measured:
Assay type in all cases: in vivo, C57BL/6J mice
[1] = test system: bleomycin-induced pulmonary fibrosis model; assay: Pulmonary histopathology (H&E, pathology scores) in bleomycin-induced pulmonary fibrosis mice
Description: (§1) Fifty male SPF C57BL/6J mice were randomized by weight into the normal control group, model control group, positive control group, GLP-4 low-dose group, and GLP-4 high-dose group, with 10 animals in each group. Ten animals not subjected to modeling served as the normal control group. The remaining animals were modeled by administering bleomycin via tracheal injection at 5 mg/kg, 0.1 mL per mouse, one-time administration. Starting on day 7 post-modeling, the study drug, positive drug, or solvent was administered orally at 10 mL/kg once daily for 21 consecutive days. During the experimental period, daily observations were made for each group's food intake, activity, breathing, and responsiveness; pulmonary function was tested before administration and about 24 h after the last dose. After completing pulmonary function tests, the mice were euthanized for pathological sampling.
Pulmonary histopathology: Following lung function tests, mice were euthanized, and a laparotomy was performed. Whole-body perfusion was conducted using saline through the portal vein followed by thoracotomy and perfusion-fixation with 10% formaldehyde solution for 5 min. The trachea was then ligated, the lungs were harvested, and further fixed in formalin solution for 48 h. Hematoxylin and eosin (H&E) staining was performed to observe pathological changes.

[2] = test system: bleomycin-induced pulmonary fibrosis model; assay: General behavioral observation in bleomycin-induced pulmonary fibrosis mice; settings: oral 21 days, pirfenidone 225 mg/kg, GLP-4 low-dose 200 mg/kg
Description: as §1
General behavioral observation: During the trial period, daily observations were made on the animals' consumption, activity, breathing, and responsiveness.

[3] = test system: bleomycin-induced pulmonary fibrosis model; assay: Lung function test (EMKA WBP) in bleomycin-induced pulmonary fibrosis mice
Description: as §1
Lung function: Lung function in mice was measured using the EMKA WBP animal lung function assessment system both before administration and approximately 24 h after the last dose. Measurements included inspiratory (expiratory) duration, maximum inspiratory (expiratory) volume, tidal volume, expiratory volume, relaxation time, minute ventilation, respiratory rate, end inspiratory (expiratory) pause, bronchoconstriction parameters, 50% expiratory flow, alveolar ventilation, and number of breaths.

[4] = 21 days post-dosing, pirfenidone 225 mg/kg po daily
[5] = prior to administration (one week post-modeling), pirfenidone 225 mg/kg group

SMILES: Cc1ccc(=O)n(-c2ccccc2)c1 [positive control, pirfenidone]
- Fibrotic tissue proliferation ([1]; bleomycin mice, H&E, pirfenidone 225 mg/kg, GLP-4 low-dose 200 mg/kg): no fibrotic tissue proliferation
- Pathology score ([1]; lung, pirfenidone 225 mg/kg po daily, 21 days): 6.22 ± 3.31
- General behavior compared to the model control group [2]: noticeable improvements in appetite, activity, breathing, responsiveness, and fur condition
- AV (alveolar ventilation) [3, 4]: 119.87 ± 38.33 mL
- EEP (end expiratory pause) [3, 4]: 5.89 ± 0.57 ms
- EF50 (50% expiratory flow) [3, 4]: 5.31 ± 0.91 mL/s
- EIP (end inspiratory pause) [3, 4]: 18.83 ± 9.94 ms
- EV (expiratory volume) [3, 4]: 0.14 ± 0.01 mL
- MV (minute ventilation) [3, 4]: 64.98 ± 11.84 mL
- PEF (peak expiratory flow) [3, 4]: 5.59 ± 0.86 mL/s
- PIF (peak inspiratory flow) [3, 4]: 4.49 ± 0.75 mL/s
- Penh (bronchoconstriction parameters) [3, 4]: 0.56 ± 0.22
- RT (relaxation time) [3, 4]: 57.72 ± 22.68 ms
- TV (tidal volume) [3, 4]: 0.14 ± 0.01 mL
- Te (expiratory duration) [3, 4]: 73.20 ± 22.54 ms
- Ti (inspiratory duration) [3, 4]: 79.85 ± 12.82 ms
- n (number of breaths) [3, 4]: 40.22 ± 17.53
- Lung function indices compared to the model control group ([3]; bleomycin mice, 21 days post-dosing, pirfenidone 225 mg/kg, GLP-4 low-dose 200 mg/kg): significant increases in PIF, PEF, TV, EV, MV, EF50, and alveolar ventilation (AV)
- AV (alveolar ventilation) [3, 5]: 70.49 ± 10.76 mL
- EEP (end expiratory pause) [3, 5]: 5.70 ± 0.71 ms
- EF50 (50% expiratory flow) [3, 5]: 5.68 ± 0.95 mL/s
- EIP (end inspiratory pause) [3, 5]: 62.63 ± 33.56 ms
- EV (expiratory volume) [3, 5]: 0.15 ± 0.02 mL
- MV (minute ventilation) [3, 5]: 52.78 ± 12.68 mL
- PEF (peak expiratory flow) [3, 5]: 5.94 ± 0.94 mL/s
- PIF (peak inspiratory flow) [3, 5]: 4.63 ± 0.69 mL/s
- Penh (bronchoconstriction parameters) [3, 5]: 0.44 ± 0.15
- RT (relaxation time) [3, 5]: 105.6 ± 46.61 ms
- TV (tidal volume) [3, 5]: 0.15 ± 0.02 mL
- Te (expiratory duration) [3, 5]: 120.91 ± 48.12 ms
- Ti (inspiratory duration) [3, 5]: 109.26 ± 23.25 ms
- n (number of breaths) [3, 5]: 23.82 ± 4.54
